Experimental data reported in PubChem BioAssay (NCI).
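48-hour exposure; five concentrations; linearly interpolated endpoints. Abbreviation: GI50, concentration required for 50% inhibition of growth. At the TGI there is no net growth.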

What was measured:
Assay in all cases: NCI anticancer screen, dose series, 48 h; in the data active means GI50 below about 0.43 µM; inactive means the rest
IGROV1 ovarian = tested on: IGROV1 ovarian
NCI-H23 lung = tested on: NCI-H23 lung
SN12C renal = tested on: SN12C renal
SK-MEL-5 melanoma = tested on: SK-MEL-5 melanoma
A549 NSCLC = tested on: A549 NSCLC
SR leukemia = tested on: SR leukemia
OVCAR-4 ovarian = tested on: OVCAR-4 ovarian
HOP-92 NSCLC = tested on: HOP-92 NSCLC
SNB-19 CNS = tested on: SNB-19 CNS
UACC-62 melanoma = tested on: UACC-62 melanoma
COLO 205 colon = tested on: COLO 205 colon
HT29 colon = tested on: HT29 colon
SK-OV-3 ovarian = tested on: SK-OV-3 ovarian
NCI-H460 lung = tested on: NCI-H460 lung
OVCAR-3 ovarian = tested on: OVCAR-3 ovarian
T-47D breast = tested on: T-47D breast
SW-620 colon = tested on: SW-620 colon
ACHN renal = tested on: ACHN renal
SNB-75 CNS = tested on: SNB-75 CNS
HCC-2998 colon = tested on: HCC-2998 colon
MDA-MB-435 = tested on: MDA-MB-435
OVCAR-5 ovarian = tested on: OVCAR-5 ovarian
UO-31 renal = tested on: UO-31 renal
TK-10 renal = tested on: TK-10 renal
HL-60(TB) leukemia = tested on: HL-60(TB) leukemia
MCF7 breast = tested on: MCF7 breast
M14 melanoma = tested on: M14 melanoma
MALME-3M melanoma = tested on: MALME-3M melanoma
RPMI-8226 leukemia = tested on: RPMI-8226 leukemia
A498 renal = tested on: A498 renal
SF-268 CNS = tested on: SF-268 CNS
HCT-15 colon = tested on: HCT-15 colon
DU-145 prostate = tested on: DU-145 prostate
OVCAR-8 ovarian = tested on: OVCAR-8 ovarian
LOX IMVI melanoma = tested on: LOX IMVI melanoma
BT-549 breast = tested on: BT-549 breast
U251 CNS = tested on: U251 CNS
786-0 renal = tested on: 786-0 renal
SF-295 CNS = tested on: SF-295 CNS
NCI/ADR-RES ovarian = tested on: NCI/ADR-RES ovarian
SF-539 CNS = tested on: SF-539 CNS
UACC-257 melanoma = tested on: UACC-257 melanoma
K-562 leukemia = tested on: K-562 leukemia
CAKI-1 renal = tested on: CAKI-1 renal
MOLT-4 leukemia = tested on: MOLT-4 leukemia
SK-MEL-28 melanoma = tested on: SK-MEL-28 melanoma
KM12 colon = tested on: KM12 colon
NCI-H226 lung = tested on: NCI-H226 lung
RXF 393 renal = tested on: RXF 393 renal
NCI-H522 lung = tested on: NCI-H522 lung
MDA-MB-231 breast = tested on: MDA-MB-231 breast
HOP-62 NSCLC = tested on: HOP-62 NSCLC
CCRF-CEM leukemia = tested on: CCRF-CEM leukemia
HCT-116 colon = tested on: HCT-116 colon
HS 578T breast = tested on: HS 578T breast

COc1ccc(-c2csc(NC(=O)c3cc(O)c(O)c(O)c3)n2)cc1
22.6 µM: TGI (T-47D breast)
6.89 µM: TGI (NCI-H522 lung)
23.9 µM: TGI (HL-60(TB) leukemia)
32.6 µM: TGI (IGROV1 ovarian)
17.6 µM: TGI (CCRF-CEM leukemia)
inactive: GI50 (IGROV1 ovarian) 6.69 µM | GI50 (NCI-H23 lung) 11.2 µM | GI50 (SN12C renal) 7.42 µM | GI50 (SK-MEL-5 melanoma) 6.04 µM | GI50 (A549 NSCLC) 10.3 µM | GI50 (SR leukemia) 1.89 µM | GI50 (OVCAR-4 ovarian) 7.27 µM | GI50 (HOP-92 NSCLC) 5.24 µM | GI50 (SNB-19 CNS) 6.02 µM | GI50 (UACC-62 melanoma) 5.87 µM | GI50 (COLO 205 colon) 10.8 µM | GI50 (HT29 colon) 18.6 µM | GI50 (SK-OV-3 ovarian) 17.2 µM | GI50 (NCI-H460 lung) 7.5 µM | GI50 (OVCAR-3 ovarian) 12.2 µM | GI50 (T-47D breast) 5.19 µM | GI50 (SW-620 colon) 5.69 µM | GI50 (ACHN renal) 3.76 µM | GI50 (SNB-75 CNS) 6.32 µM | GI50 (HCC-2998 colon) 17.2 µM | GI50 (MDA-MB-435) 8.69 µM | GI50 (OVCAR-5 ovarian) > 33.3 µM | GI50 (UO-31 renal) 1.65 µM | GI50 (TK-10 renal) 6.36 µM | GI50 (HL-60(TB) leukemia) 8.28 µM | GI50 (MCF7 breast) 10.7 µM | GI50 (M14 melanoma) 10.4 µM | GI50 (MALME-3M melanoma) 11.1 µM | GI50 (RPMI-8226 leukemia) 5.59 µM | GI50 (A498 renal) 9.61 µM | GI50 (SF-268 CNS) 6.31 µM | GI50 (HCT-15 colon) 6.63 µM | GI50 (DU-145 prostate) 9.59 µM | GI50 (OVCAR-8 ovarian) 7.52 µM | GI50 (LOX IMVI melanoma) 6.57 µM | GI50 (BT-549 breast) 10.9 µM | GI50 (U251 CNS) 4.09 µM | GI50 (786-0 renal) 11 µM | GI50 (SF-295 CNS) 16.1 µM | GI50 (NCI/ADR-RES ovarian) 11.2 µM | GI50 (SF-539 CNS) 7.64 µM | GI50 (UACC-257 melanoma) 11.9 µM | GI50 (K-562 leukemia) 4.5 µM | GI50 (CAKI-1 renal) 2.61 µM | GI50 (MOLT-4 leukemia) 2.3 µM | GI50 (SK-MEL-28 melanoma) 13.2 µM | GI50 (KM12 colon) 13.2 µM | GI50 (NCI-H226 lung) 9.59 µM | GI50 (RXF 393 renal) 7.31 µM | GI50 (NCI-H522 lung) 1.32 µM | GI50 (MDA-MB-231 breast) 5.18 µM | GI50 (HOP-62 NSCLC) 8.92 µM | GI50 (CCRF-CEM leukemia) 1.55 µM | GI50 (HCT-116 colon) 6.69 µM | GI50 (HS 578T breast) 19.3 µM
26.2 µM: TGI (HOP-92 NSCLC)
> 33.3 µM: TGI (NCI-H23 lung) | TGI (SN12C renal) | TGI (SK-MEL-5 melanoma) | TGI (A549 NSCLC) | TGI (SR leukemia) | TGI (OVCAR-4 ovarian) | TGI (SNB-19 CNS) | TGI (UACC-62 melanoma) | TGI (COLO 205 colon) | TGI (HT29 colon) | TGI (SK-OV-3 ovarian) | TGI (NCI-H460 lung) | TGI (OVCAR-3 ovarian) | TGI (SW-620 colon) | TGI (ACHN renal) | TGI (SNB-75 CNS) | TGI (HCC-2998 colon) | TGI (MDA-MB-435) | TGI (OVCAR-5 ovarian) | TGI (UO-31 renal) | TGI (TK-10 renal) | TGI (MCF7 breast) | TGI (M14 melanoma) | TGI (MALME-3M melanoma) | TGI (RPMI-8226 leukemia) | TGI (A498 renal) | TGI (SF-268 CNS) | TGI (HCT-15 colon) | TGI (DU-145 prostate) | TGI (OVCAR-8 ovarian) | TGI (LOX IMVI melanoma) | TGI (BT-549 breast) | TGI (U251 CNS) | TGI (786-0 renal) | TGI (SF-295 CNS) | TGI (NCI/ADR-RES ovarian) | TGI (SF-539 CNS) | TGI (UACC-257 melanoma) | TGI (K-562 leukemia) | TGI (CAKI-1 renal) | TGI (MOLT-4 leukemia) | TGI (SK-MEL-28 melanoma) | TGI (KM12 colon) | TGI (NCI-H226 lung) | TGI (RXF 393 renal) | TGI (MDA-MB-231 breast) | TGI (HOP-62 NSCLC) | TGI (HCT-116 colon) | TGI (HS 578T breast)
